We go through one compound from publication PMC7157241, “Phenotypic Drug Discovery for Human African Trypanosomiasis: A Powerful Approach” (Tropical Medicine and Infectious Disease, 2020).

The structures appear in SMILES notation. Marks after values point to notes of the source that are not given here.

Series [1] can be described thus: Mammalian cell cytotoxicity assay (AlamarBlue, 48 h). Type of series: cell-based. The conditions noted are these: human, CRL-8155 cells (lymphoblasts); lymphocytic cell line CRL-8155; read-out: Mammalian CC50. The method, then: Compounds were tested for cytotoxicity against CRL-8155 cells (human lymphoblasts). Cells were grown in culture with serial dilutions of compounds for 48 h and cytotoxicity was assayed using AlamarBlue (Life Technologies, Carlsbad, California CA, USA).

Series [2] deals with T. brucei brucei (strain BF427). The series is described as follows: In vitro parasite growth arrest assay (AlamarBlue). Type of series: cell-based, Trypanosoma brucei brucei. The conditions noted are these: Trypanosoma brucei, selected hit compounds, Table 1; read-out: T. brucei EC50. The method, then: Follow up compounds were tested for antiparasitic activity on T. brucei brucei (strain BF427). Parasites were tested in triplicate in the presence of serial dilutions of compound, and growth was quantified with AlamarBlue.
On the technique in general: Alamar Blue is a resazurin reagent that responds to reducing activity.

Details of series [3]: method as in PMID 28835807. The conditions noted are these: data are for close analog of Scaffold 9 parent (parent had poor ionization in MS); 60 min following IP dose; cited from earlier work.

For the compound `COc1ccc(N2C(=O)CN(Cc3ccccc3)C2=S)cc1Cl` [Scaffold 9], in series [1], the CC50 (commonly the concentration that lowers cell viability or growth by half) at 48 h was above 50 µM. Moreover, the EC50 (in general, the concentration giving half of the maximal effect) in series [2] stood at 0.346 µM. Besides, in series [3], the “B/P Ratio (Mouse)” value was 0.743 ***.
